Melting point data for 65 molecules are collected here from a melting point compilation (Tetko et al.; mined from patent text by program, amines drawn as free bases though some values may be those of a salt).

By melting point is commonly meant the temperature of the solid-liquid transition.

SMILES strings stand for the structures.

For the molecule `COC(=O)CCc1cc2cc(Cl)ccc2n1S(=O)(=O)c1cccc2c(C(=O)CN)cccc12`, the melting point lay in the range of 206 to 210 °C. `c1ccc2cc(OCCNC3CCCCC3)ccc2c1` registered a melting point of 89 °C. The figure for `COc1cc(C(C)(C)CNC(=O)c2cccc(Br)c2)cc2c1OC(C)(C)C2` is 157 to 163 °C; for `c1ccc(COC2COC(c3ccco3)OC2)cc1` (stereo not given) it is 50 to 52 °C; for `CC(C)NC1=NS(=O)(=O)c2ccc(CC(N)=O)cc2N1` it is 321 to 325 °C. Then `CNc1nc(N)nc(NC2CC2)n1`, with 159 to 162 °C; and `C=CCc1cccc2c(=O)cc(C=Cc3ccccc3)oc12`, with 142 °C; and `C=CCc1c(OCOC)cc(OCOC)c(C(=O)C=Cc2ccc(OCOC)cc2)c1O`, with 68 to 69 °C. The figure for `CN(C=O)c1cc(F)ccc1C(=O)CS(C)(=O)=O` is 94.5 to 95.5 °C. `COC(=O)CCCc1cc2nc(Cl)ccc2n1S(=O)(=O)c1cccc(Cl)c1` had a melting point of 107 °C. `CC(C)(C)OC(=O)c1nc2ccc(NCCCN3CCC(OC(c4ccccc4)c4ccccc4)CC3)nn2n1` showed a melting point of 133 to 135 °C. Regarding `CC(=O)OC(C)(C)c1nnc(-c2ccc3occ(-c4cc(F)ccc4F)c3c2)o1`, the melting point is 125 to 126 °C. Then `N#CC1CN1C(=O)NC(=O)c1cccc([N+](=O)[O-])c1` (stereo not given), with 156 to 158 °C. `O[C@H]1c2cc(OC(c3ccccc3)c3ccccc3)ccc2OC[C@H]1Oc1cccnc1` (relative stereo) returned a melting point of 169 to 170 °C. Then `COCCc1cccc2oc(C(=O)Nc3ccc(-c4ccc(S(=O)(=O)NC(C(=O)OC)C(C)C)cc4)cc3)c(C)c12` (stereo not given), with 67 to 70 °C; and `O=C(O)COc1ccc(CN2C(=O)C3(COc4cc5c(cc43)CCO5)c3ccccc32)cc1` (stereo not given), with 265 to 266 °C; and `CC1=CC(C)(C)N2C(=O)C(=O)c3cc(C)cc1c32`, with 157 to 161 °C.

The molecule `O=C1OC2(C=C1c1ccccc1)C=C(c1ccccc1)C(=O)O2` showed a melting point of 235 to 237 °C. As for `O=C(Oc1cc(-c2ccccc2)nc2ccccc12)N1CCOCC1`, the melting point was 127 °C.

On to `N#CC(Nc1ccc2ccccc2c1)c1c(Cl)cccc1Cl` (stereo not given), for which the melting point came out at 94.8 °C.

With `CCN(CC)CCSCC(=O)c1ccc2[nH]c3ncc(Cl)cc3c2c1`, the melting point was in the range of 137 to 138 °C. The figure for `COC(=O)Cc1ccc(-c2ccc(OCCN3CCOCC3)cc2)cn1` is 135 to 137 °C; for `COc1ccc(/C=C/c2nc3c(c(=O)n(C)c(=O)n3C)n2C)c(C)c1C` it is greater than 275 °C; for `NC(Cc1ccc(OCc2ccccc2)cc1)C(=O)Nc1c(F)cc(F)cc1F` (stereo not given) it is 80.5 to 86.5 °C. For the molecule `Cc1nnc(-c2ccc3occ(-c4cccc(OC(F)(F)F)c4)c3n2)o1`, the melting point was in the range of 146 to 147 °C. `COc1ccnc(CCc2nc3cc(-c4ccco4)cnc3[nH]2)c1`: the melting point is 147 to 148 °C. `O=CCCCOC(c1ccccc1)(c1ccccc1)c1ccccc1` came in with a melting point of 62 to 65 °C. In turn, `CCOC(=O)c1cn2c3c(c(F)c(F)cc3c1=O)CCC2CO` (stereo not given) yielded a melting point of 256 to 258 °C.

As to `CCc1ccc(N(Cc2ccc(C(=O)N(C)C)cc2)C(=O)Nc2c(C(C)C)cccc2C(C)C)cc1`, the melting point lay in the range of 170 to 172 °C. Molecule `CCc1cc2c(O)c(C(=O)O)cnc2s1` returned a melting point of 238 to 239 °C. The figure for `Nc1c2c(nc3ccccc13)CC(O)CC2O` (stereo not given) is 158 to 162 °C; for `CCOCOC1(C(=O)CO)C(C)CC2C3CC(C)C4=CC(=O)C=CC4(C)C3C(O)CC21C` (stereo not given) it is 100 to 102 °C; for `CNC(=O)OCCN1C(=O)c2ccccc2C1=O` it is 142 to 145 °C. With `Cc1noc(-c2ccc(=O)n3c2-c2sc(-c4ccccc4)cc2SCC3)n1`, the melting point lay within 183 to 185 °C. Then `CCc1cccc(C)c1CNc1cc(C(=O)OC)cn2nc(C)nc12`, with 140 °C; and `Fc1ccc2c(c1F)OCCN2`, with 48 to 54 °C; and `O=CC1CCN1C(c1ccccc1)c1ccccc1` (stereo not given), with 85 to 86 °C. The figure for `CCOC(=O)c1cc2c(C=O)cc3c4ccccc4ccc3c2s1` is 196 to 197 °C; for `C[C@@H](Nc1ncnc2[nH]c(-c3ccc(CCl)cc3)cc12)c1ccccc1` it is greater than 320 °C; for `Cc1nc2c(NC(=O)C(C)(C)C)c(C(=O)C=Cc3ccccc3)ccn2c1C` it is 108 to 110 °C. Turning to `O=C(CCc1ccccc1)Nc1c(O)cc(-c2ccccc2)oc1=O`, the melting point was in the range of 191 to 193 °C. Molecule `CC[Si](CC)(CC)Oc1cccc2ncc3c(c12)CCCC3` registered a melting point of 110 to 111 °C. `COc1cnc(CCl)nc1O`: the melting point is 87 °C.

With `CC1(C)Cc2cccc(OCCCBr)c2O1`, the melting point was 54 to 56 °C. The figure for `Cc1cc(C#N)sc1Br` is 40 to 42 °C.

In turn, `OCCC(O)OCn1ccc2c(Cl)ncnc21` (stereo not given) returned a melting point of 114 °C. `CCc1cccc(C2=NC(C)(C)CO2)c1C` returned a melting point of 96 to 98 °C.

`O=C1c2ccccc2C(=O)N1OCc1ccn(C(c2ccccc2)(c2ccccc2)c2ccccc2)n1` returned a melting point of 177 to 179 °C. In turn, `CC(C)(CCCCCCCc1c(-c2ccccc2)nc(-c2ccccc2)n1-c1ccccc1)C(=O)O` gave a melting point of 119 to 120 °C. Molecule `O=C1Nc2cc(Cl)cc3c2N(CC3)c2ccccc21` gave a melting point of 252 to 255 °C. Then `Cc1cc(C)n2nc(S(=O)(=O)Cl)nc2c1`, with 125 to 126 °C; and `CC1CC2=CC(=O)CCC2C2C(F)CC3(C)C(OCc4ccc(S(N)(=O)=O)cc4)CCC3C12` (stereo not given), with 232 °C; and `Cc1nc2c3c(ccc2n1C1CC1)C(=O)[C@H](O)[C@@H](c1ccccc1)O3`, with 178 °C. The figure for `CCOCCn1c(C)c(C2(c3ccc(N(CC)CC)cc3CC)OC(=O)c3ccccc32)c2ccccc21` (stereo not given) is 156 to 158 °C. The figure for `COC(=O)Nc1nc2cc(C)[nH]c2c(=O)[nH]1` is 234 to 236 °C; for `Cc1ccc(C)c(SCCCC(=O)O)c1` it is 61 to 62 °C. The molecule `FC(F)(F)Oc1cccc(-c2ccc3nnn(Cc4ccc5ncccc5c4)c3n2)c1` had a melting point of 140 to 142 °C. The molecule `CCOC(=O)c1nc(C=Cc2cccc(C(F)(F)F)c2)oc1C` registered a melting point of 103 to 104 °C. Consider `C#CC(=O)N1CCN(C(=O)OC2C3=C(OCCS3)C(=O)N2c2ccc3ccc(Cl)nc3n2)CC1` (stereo not given), for which the melting point worked out at 302 °C. `CCCc1ccnc(C(N)=O)c1N` registered a melting point of 139 to 141 °C. Consider `C=CCC(=NO)C(C)=NNc1c(Cl)cc(C(F)(F)F)cc1Cl`, for which the melting point was in the range of 71 to 73 °C. The figure for `CNC(=O)C(=NOC)c1cccc(Cl)c1COc1cc(C(F)(F)F)nc(OC(C)C)n1` is 116 to 118 °C; for `N#Cc1cc([N+](=O)[O-])ccc1Oc1cc(Cl)c(Cl)c(Cl)c1` it is 162 to 164 °C. `COc1ccc(-c2ccc(C(N)=O)cc2)cc1OCCCCc1ccccc1`: the melting point is 180 to 182 °C. The figure for `CC(CO)Nc1c([N+](=O)[O-])cnc2ccccc12` (stereo not given) is 207 to 211 °C.
